# Residues, ends and D or L forms follow the SMILES beside them. No end group written: not given here.
# How the values were obtained:
# Assay in all cases: In vitro radiolabeled competitive HLA binding assay
# [1] = target: HLA B*08:01 (purified MHC class I) (Homo sapiens, UniProt P01889, A93T/A95T/D138N/E176V/E187T/K202T/Q94N/R180D/S35A/V36M/Y33D/Y91F)
# [2] = target: HLA B*07:02 (purified MHC class I) (Homo sapiens, UniProt P01889)
# [3] = target: HLA A*02:01 (purified MHC class I) (Homo sapiens, UniProt P04439, D140Y/D185E/D98H/E176V/E277Q/G131W/G231S/I119V/I121R/I166T/I218V/L300P/L318F/N151K/N90K/P208A/P217A/Q86G/Q94H/R138H/R169H/T345S)
# [4] = target: HLA A*26:01 (purified MHC class I) (Homo sapiens, UniProt P04439, A114D/A173T/A270S/D101N/D185E/E277Q/E87N/F33Y/G231S/I121R/I218V/K168Q/L180W/L300P/L318F/P208A/P217A/Q86R/Q94H/R138Q/S129P/T187R/T323A/T345S/V100A/V358M)
# [5] = target: HLA B*40:02 (purified MHC class I) (Homo sapiens, UniProt P01889, A65T/A93T/A95T/D138N/D201E/D98Y/E176V/E204Q/E69K/K202T/N87E/Q56L/Q94N/R180L/S48T/Y33H/Y91S)
# [6] = target: HLA B*40:01 (purified MHC class I) (Homo sapiens, UniProt P01889, A65T/A93T/A95T/D138N/D98Y/E176V/E69K/N87E/Q56L/Q94N/R180L/S121R/S35A/S48T/T167S/V36M/W171L/Y33H/Y91S)
Compound,IC50 [3] [nM],other results
CC(C)C[C@H](NC(=O)[C@H](CCC(=O)O)NC(=O)[C@H](CC(=O)O)NC(=O)[C@H](CS)NC(=O)[C@H](CCCCN)NC(=O)[C@H](CCCCN)NC(=O)[C@H](CCCCN)NC(=O)[C@H](CO)NC(=O)[C@@H](N)Cc1c[nH]cn1)C(=O)O,–,IC50 [1]: 764 nM
CC[C@H](C)[C@H](N)C(=O)N1CCC[C@H]1C(=O)N[C@@H](Cc1ccccc1)C(=O)N[C@@H](Cc1ccc(O)cc1)C(=O)NCC(=O)N[C@@H](CCCCN)C(=O)N[C@@H](C)C(=O)N[C@H](C(=O)O)[C@@H](C)CC,–,IC50 [2]: 497 nM
CC(C)C[C@H](NC(=O)[C@H](C)NC(=O)[C@H](CC(C)C)NC(=O)[C@@H](N)CC(C)C)C(=O)N[C@@H](CC(C)C)C(=O)N[C@@H](CO)C(=O)N[C@@H](CS)C(=O)N[C@@H](CC(C)C)C(=O)N[C@H](C(=O)N[C@H](C(=O)O)C(C)C)[C@@H](C)O,357,–
CSCC[C@H](NC(=O)[C@H](CO)NC(=O)[C@H](CS)NC(=O)[C@H](CS)NC(=O)[C@@H](NC(=O)[C@@H](NC(=O)[C@@H](N)CC(=O)O)C(C)C)C(C)C)C(=O)N[C@@H](CO)C(=O)N[C@@H](Cc1ccc(O)cc1)C(=O)O (H-DVVCCSMSY-OH),–,IC50 [4]: 25 nM
FLVGQLFTF,67,–
GIDPNIRTGV,722,–
GVDPNIRTGV,351,–
HPALVFDIT,–,IC50 [2]: 160 nM
LEDRDRSEL,–,IC50 [5]: 4270 nM; IC50 [6]: 426 nM
RLWHYPCTV,12,–
SLLAPGAKQNV,513,–
VLSDFKTWL,305,–
